Assay results: patent US11672788B2, “Histone deacetylase inhibitors for immunomodulation in tumor microenvironment” (GREAT NOVEL THERAPEUTICS BIOTECH & MEDICALS CORPORATION, priority 2020, dated 2023)

What was measured:
HDAC11 = HDAC11 (Homo sapiens (Human), UniProt Q96DB2); test: HDACs 1-11 enzymatic inhibition by BPS Bioscience
Description: HDAC assay was performed according to standard Protocols (Fluorgenic HDACs 1-11 assay kit, BPS Bioscience™). […] After 0.5 h, assay developer was added to the samples and the absorbance was read at fluorogenic wavelength. The relative inhibition to HDACs 1, 2, 3, 4, 5, 6, 7, 8, 9, and 11 activities was determined in each sample. […] All of the compounds were dissolved in DMSO. The serial dilution of the compounds was first performed in 100% DMSO with the highest concentration at 1 mM. Each intermediate compound dilution (in 100% DMSO) would then get directly diluted 10× fold into assay buffer for an intermediate dilution of 10% DMSO in HDAC assay buffer and 5 μl of the dilution was added to a 50 μl reaction so that the final concentration of DMSO is 1% in all of the reactions. The enzymatic reactions for the HDAC enzymes were conducted in duplicate at 37° C. for 30 minutes in a 50 μl mixture containing HDAC assay buffer, 5 μg BSA, an HDAC substrate, a HDAC enzyme and a test compound. After enzymatic reactions, 50 μl of 2×HDAC Developer was added to each well for the HDAC enzymes and the plate was incubated at room temperature for an additional 15 minutes. Fluorescence intensity was measured at an excitation of 360 nm and an emission of 460 nm using a Tecan Infinite M1000 microplate reader. HDAC activity assays were performed in duplicate at each concentration. The fluorescent intensity data were analyzed using the computer software, Graphpad Prism. In the absence of the compound, the fluorescent intensity (Ft) in each data set was defined as 100% activity. In the absence of HDAC, the fluorescent intensity (Fb) in each data set was defined as 0% activity. The percent activity in the presence of each compound was calculated according to the following equation: % activity=(F−Fb)/(Ft−Fb), where F=the fluorescent intensity in the presence of the compound. The values of % activity versus a series of compound concentrations were then plotted using non-linear regression analysis of Sigmoidal dose-response curve generated with the equation Y=B+(T−B)/1+10((Log EC50−X)×Hill Slope), where Y=percent activity, B=minimum percent activity, T=maximum percent activity, X=logarithm of compound and Hill Slope=slope factor or Hill coefficient. The IC50 value was determined by the concentration causing a half-maximal percent activity.

SW48 cells [1] = test: Cell apoptosis (sub-G1) by PI flow cytometry; assay type: cell-based, human; settings: SW48, 6.25 μM, 72 h
Description: (§1) A PI/RNase staining assay (BD Bioscience™) was performed to reveal the presence of cell cycle arrest and apoptotic cells after treatment with GNTbm compounds, Chidamide and Entinostat. […] After treatment cells were harvested, fixed with 80% ethanol for 24 h, washed with 1×PBS and stained with PI/RNase for 15 min at room temperature. The cells were then analyzed using Flow Cytometer within 1 h.

M10 cells [2] = test: Cell apoptosis (sub-G1) by PI flow cytometry; assay type: cell-based, human; settings: M10, 12.5 μM, 72 h
Description: as §1

MDA-MB-231 cells [3] = test: Cell apoptosis (sub-G1) by PI flow cytometry; assay type: cell-based, human; settings: MDA-MB-231, 6.25 μM, 72 h
Description: as §1

MDA-MB-231 = test: In vitro cytotoxicity MTT assay; assay type: cell-based, human; settings: Homo sapiens, MDA-MB-231, 72 h, IC50 ± SD
Description: (§2) Six different cell lines were used, including human breast cancer cell line MDA-MB-231 (6×10^3), MDA-MB-453 (2.4×10^4), SK-BR-3 (6×10^3), human breast epithelial cell line M10 (6×10^3), human gastric carcinoma NCI-N87 (2.4×10^4), and human colorectal adenocarcinoma SW48 (2.4×10^4), and seeded in a 96 well plate. Cell lines were obtained from Bioresource Collection and Research Center, BCRC, Taiwan. […] After 72 h, MTT assay (Cayman™) was used to determine the cellular viability.

M10 = test: In vitro cytotoxicity MTT assay; assay type: cell-based, human; settings: Homo sapiens, M10, 72 h, IC50 ± SD
Description: as §2

SW48 = test: In vitro cytotoxicity MTT assay; assay type: cell-based, human; settings: Homo sapiens, SW48, 72 h, IC50 ± SD
Description: as §2

MDA-MB-453 = test: In vitro cytotoxicity MTT assay; assay type: cell-based, human; settings: Homo sapiens, MDA-MB-453, 72 h, IC50 ± SD
Description: as §2

SW48 cells [4] = test: Cell cycle arrest by PI flow cytometry; assay type: cell-based, human; settings: SW48, 3.125 μM, 72 h
Description: as §1

M10 cells [5] = test: Cell cycle arrest by PI flow cytometry; assay type: cell-based, human; settings: M10, 12.5 μM, 72 h
Description: as §1

MDA-MB-231 cells [6] = test: Cell cycle arrest by PI flow cytometry; assay type: cell-based, human; settings: MDA-MB-231, 3.125 μM, 72 h
Description: as §1

[7] = system: histone H3 acetylation (AcH3) in MDA-MB-231 cells; test: Western blot of histone H3 acetylation; assay type: cell-based, human; settings: MDA-MB-231, 1.0 μM, 24 h
Description: Human breast cancer MDA-MB-231 cells and human colorectal adenocarcinoma SW48 cells were analyzed. MDA-MB-231 and SW48 were obtained from Bioresource Collection and Research Center (BCRC, Taiwan). MDA-MB-231 and SW48 were grown at 37° C. under humidified air supplemented without CO2 in Leibovitz's L-15 (cat. #11415114, Thermo Fisher Scientific) containing 10% heat inactivated fetal calf serum (Thermo Scientific), 1× concentration of MycoZap antibiotics (cat. #VZA-2011, Lonza). Cells were treated with GNTbm compounds series, Chidamide or Entinostat for different time periods or at varied doses. Cells were treated with indicated doses for 24 h or cells were treated with indicated doses for different time periods. Cell pellets were dissolved with RIPA buffer (cat. #20-188, Merck) with protease and phosphatase inhibitors (cat. #K272, BioVision) and clarified by centrifugation. Equal amounts of total protein were resolved by SDS-PAGE and transferred to polyvinylidene fluoride membranes (cat. #1620177, BIO-RAD). Blots were incubated with primary antibodies against β-actin (cat. #sc-47778, Santa Cruz Biotechnology), Histone 3ac (cat. #61637, Active Motif), and HRP secondary antibodies anti-rabbit (ab6721, Abcam) and anti-mouse (sc-2005, Santa Cruz). Blots were developed using the ECL Western Blotting Substrate (cat. #sc-2048, Santa Cruz Biotechnology) Image blots were analyzed with the iBright FL1000 (Thermo Fisher Scientific) imaging systems.

SK-BR-3 = test: In vitro cytotoxicity MTT assay; assay type: cell-based; settings: Homo sapiens, 72 h, IC50 ± SD
Description: as §2

CT26 tumor [8] = test: Survival rate in CT26 tumor-bearing mice; assay type: in vivo; settings: Exp 1
Description: The administration of antibody or drugs was performed for 16 days from day 8 to day 23. The tumor continued to grow in the tumor-bearing mice. The tumor volume of the mice was measured once every three or four days (twice/week). The tumor-bearing mice were regarded as dead when the tumor volume reached 3,000 mm^3. All treatment groups were recorded and analyzed.

CT26 tumor [9] = test: Anti-cancer activity in CT26 tumor-bearing BALB/c mice; assay type: in vivo; settings: for ORR (%): k-30 compounds 50 mg/kg, Regorafenib 30 mg/kg po daily; for ORR (%) / CR / PD / PR: first tumor assessment; for CR / PD / PR / CR^& / PD^& / PR^& / SD^&: number of mice; for ORR (%)^& / CR^& / PD^& / PR^& / SD^&: second tumor assessment on day 40
Description: Six- to eight-week-old male BALB/c mice (National Laboratory Animal Center, Taiwan) were used in each treatment group for all animal experiments. […] CT26 cell line was purchased from ATCC. CT26 tumor cells were grown in McCoy's 5A supplemented with 10% (vol/vol) FBS at 37° C., 5% CO2. […] Tumors were allowed to grow for 8-11 days (tumor size about 150-250 mm^3) before randomization and treatment. Animals were euthanized when tumors reached more than 3000 mm^3 […]. CT26-bearing mice were given 2.5 mg/kg of anti-IgG (cat. #BE0089, Lot #716719J3, Bio X Cell) and anti-PD-1 (cat. #BE0146, Lot #735019J3, Bio X Cell) antibody by i.p. administration on days 8, 11, 14, 17, 20 and 23 post tumor implantation, and all antibodies were diluted to appropriate concentrations in 100 μL of sterile PBS (pH 7.4) (Invitrogen Life Technologies). […] The anti-cancer activity was measured from the start of the treatment until the tumor volume reached 3,000 mm^3. Tumor volume was calculated as length×width^2×0.5.
The BALB/c mice bearing murine CT26 colon tumors were treated with various therapeutic modalities as indicated. […] CT26 tumor-bearing mice were euthanized when tumor volume reached 3000 mm^3 after tumor implantation. […] After 16 days of treatment, we continued to monitor the tumor size up to day 60. When tumor growth reappeared and tumor size reached at least 5 fold in mice with CR or PR response after first tumor assessment, it was defined as relapse/recurrence. […] Furthermore, we also investigate epigenetic immunomodulatory properties in series of GNTbm compounds including GNTbm-05/k-30, GNTbm-11/k-30, GNTbm-38/k-30 and GNTbm-39/k-30.

CT26 cells = test: Tumor rechallenge study (immune memory) in tumor-bearing mice; assay type: in vivo; settings: Exp 1; mice resistant to CT26 re-challenge
Description: All mice with PR/CR response after treatment went rechallenged with CT26 cells on the contralateral side (please see Table 6). The rechallenge with CT26 was performed on day 33, which was 7 days (day 33) after first tumor assessment (day 26), with injection of 5×10^6 CT26 cells to the right flank of each mouse. After rechallenge with CT26 cells, the tumor was allowed to grow for another 7 days (day 40) to determine the baseline as 1 fold. After a further 10 days (day 50), the tumor growth was evaluated for the rechallenge. If both of the following criteria are met, the response will be considered as relapse: first, the tumor size over 2 folds when compared to that of baseline; second, the tumor volume at day 50 was over 300 mm^3. Relapse happens when immune memory activity is not sufficiently activated. If the tumor growth is inhibited, it means the immune memory is activated.
The mice were treated with different regimens for 16 days, and then the first tumor assessment was performed (day 26). […] Then rechallenge was performed with the same kind of cancer cells (CT26; 5×10^6) inoculated on the opposite flank for about another 7 days (day 40), and then the tumor volume would be determined as baseline (1 fold). The rechallenge tumor was allowed to grow for 10 days (day 50), and then the tumor size was measured to evaluate the immune memory as positive or negative. […]

Chain of HDAC11 (Q96DB2 whole entry): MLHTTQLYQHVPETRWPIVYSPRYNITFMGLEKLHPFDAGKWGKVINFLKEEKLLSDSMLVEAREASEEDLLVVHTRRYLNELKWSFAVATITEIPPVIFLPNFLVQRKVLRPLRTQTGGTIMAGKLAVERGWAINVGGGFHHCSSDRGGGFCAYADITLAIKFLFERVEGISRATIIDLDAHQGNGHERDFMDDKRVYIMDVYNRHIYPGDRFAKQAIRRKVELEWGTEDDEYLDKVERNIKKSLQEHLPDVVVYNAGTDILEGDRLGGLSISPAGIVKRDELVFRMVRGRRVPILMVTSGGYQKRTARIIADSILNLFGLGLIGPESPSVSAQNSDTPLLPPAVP

Nc1ccccc1NC(=O)c1ccc(CNC(=O)OCc2cccnc2)cc1 [Entinostat, reference compound]
IC50 (HDAC11): > 10 µM
Induction of apoptosis (sub-G1 phase) (SW48 cells [1]): significantly induced apoptosis
Induction of apoptosis (sub-G1 phase) (M10 cells [2]): significantly induced apoptosis in M10 cells
Induction of apoptosis (sub-G1 phase) (MDA-MB-231 cells [3]): significantly induced apoptosis
IC50 (MDA-MB-231): 13.2 ± 1.34 µM
IC50 (M10): 4.34 ± 0.01 µM
IC50 (SW48): 5.21 ± 0.37 µM
IC50 (MDA-MB-453): 1.82 ± 0.024 µM
Cell cycle arrest (SW48 cells [4]): significantly induced cell cycle arrest in G0/G1 phase
Cells in G0/G1 phase (SW48 cells [4]): 72.1%
Cell cycle arrest (M10 cells [5]): significantly induced cell cycle arrest of M10 cells in the G2/M phase
Cells in G2/M phase (M10 cells [5]): 20.2%
Cell cycle arrest (MDA-MB-231 cells [6]): significantly induced cell cycle arrest in G0/G1 phase
Level of histone H3 acetylation [7]: significantly increased the level of histone H3 acetylation
IC50 (SK-BR-3): 1.94 ± 0.1 µM

CNC(=O)c1cc(Oc2ccc(NC(=O)Nc3ccc(Cl)c(C(F)(F)F)c3)c(F)c2)ccn1 [Regorafenib]
Survival rate (%) (CT26 tumor [8]): 11%
ORR (%) (CT26 tumor [9]; Exp 1, initial tumor volume 245 mm3, strict criteria (PR ≤1 times)): 11%
CR (CT26 tumor [9]; Exp 1): 1
PD (CT26 tumor [9]; Exp 1): 1
PR (CT26 tumor [9]; Exp 1): 0
ORR (%)^& (CT26 tumor [9]; Exp 1): 22%
CR^& (CT26 tumor [9]; Exp 1): 2
PD^& (CT26 tumor [9]; Exp 1): 5
PR^& (CT26 tumor [9]; Exp 1): 0
SD^& (CT26 tumor [9]; Exp 1): 2
Relapse (recurrence) (CT26 tumor [9]; Exp 1, tumor growth at least 5 fold in mice with CR or PR after first assessment, monitored up to day 60): 0% (0/1)
ORR (%) (CT26 tumor [9]; Exp 2, initial tumor volume 192 mm3): 0%
CR (CT26 tumor [9]; Exp 2): 0
PD (CT26 tumor [9]; Exp 2): 8
PR (CT26 tumor [9]; Exp 2): 0
ORR (%)^& (CT26 tumor [9]; Exp 2): 0%
CR^& (CT26 tumor [9]; Exp 2): 0
PD^& (CT26 tumor [9]; Exp 2): 9
PR^& (CT26 tumor [9]; Exp 2): 0
SD^& (CT26 tumor [9]; Exp 2): 0
Immunity (rechallenge) (CT26 cells): 100% (1/1)
